Measured values taken from patent US20240174744A1, “METHODS OF TREATMENT USING PROTEIN BINDERS TO IRHOM2 EPITOPES” (SCIRHOM GMBH, priority 2021, published 2024).

Tested on: PMA-induced release of HB-EGF from THP-1 cells
Assay: ELISA-based HB-EGF release assay, PMA-stimulated THP-1 cells
Format: cell-based
Conditions: Homo sapiens, murine (m) and chimeric (ch) antibodies 3 μg/ml, Batimastat 10 μM, PMA 25 ng/ml, 6 hours
Description: In the following study, ELISA-based HB-EGF release assays were performed to analyze the inhibitory effects of the antibodies of the present disclosure on PMA-induced release of endogenous HB-EGF from human THP-1 monocytic cells.
In brief, on day 1, Nunc black MaxiSorp® 96-well plates (Thermo Fisher Scientific, USA) were coated for 7 hours with 100 μl per well of rat anti-human HB-EGF capture antibody (provided as part of the DuoSet ELISA kit) at 2 μg/ml TBS at room temperature. Capture antibody solution was removed and MaxiSorp® plates were blocked with 300 μl per well of TBS, 1% BSA at room temperature for 3 hours. […]
Subsequently, cells (except those for unstimulated controls) were stimulated with 20 μl per well of PMA (Sigma-Aldrich, USA) at 150 ng/ml in growth medium for a final concentration of 25 ng/ml at 37° C., 5% CO2 for 6 hours. […] Using an infinite M1000 (Tecan Group, Switzerland) microplate reader, the fluorescence of each well was collected at an excitation wavelength of 435 nm and an emission wavelength of 555 nm.

CNC(=O)[C@H](Cc1ccccc1)NC(=O)[C@H](CC(C)C)[C@H](CSc1cccs1)C(=O)NO [Batimastat]
inhibition at 10 µM: 98.9%
